Where two headings read alike, the source gives them in different places.

Experimental findings from patent US9834571B2, “Compounds for inhibiting cell proliferation in EGFR-driven cancers” (ARIAD Pharmaceuticals, Inc., priority 2012, dated 2017) are described below.

The target in test [1] is EGFR L858R/T790M (Homo sapiens, UniProt P00533, L858R/T790M). Briefly: Kinase inhibitory activity against EGFR bearing the L858R/T790M double mutation. Type of test: biochemical. The following applies: 10 μM ATP, read-out: IC50 for kinase inhibition, EGFR L858R T790M. The method, boiled down: (§1)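 Kinase inhibition was measured against native human EGFR and the L858R and L858R/T790M mutants. Compounds were run as 10-point curves in singlicate from a 3 μM top concentration, with 10 μM ATP.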

The subject of test [2] is BaF3 cells expressing wildtype EGFR. The test can be described thus: Antiproliferative activity (MTT) against control BaF3 cells expressing wildtype EGFR. Type of test: cell-based. The following applies: Mus musculus. The method, boiled down: (§2)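 Antiproliferative effect was measured by MTT in BaF3 cells engineered to express mutant EGFR, with wildtype-EGFR BaF3 cells as the control line.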

Test [3] addresses T1, BaF3 cells expressing the target EGFR mutations (Homo sapiens, UniProt P00533, T790M/L858R, cells depend on it).
T1 construct: IC50, BAF3 EGFR L858R-T790M PURO POOL; other: BAF3 EGFR L858R-T790M PURO POOL cells, MTT; IC50, BAF3 EGFR L858R-T790M PURO POOL; other: BAF3 EGFR L858R-T790M PURO POOL cells; MTT
Briefly: Antiproliferative activity (MTT) against BaF3 cells expressing the target EGFR mutations. Type of test: cell-based. The following applies: BAF3 EGFR L858R-T790M PURO POOL cells, read-out: IC50, BAF3 EGFR L858R-T790M PURO POOL. The method, boiled down:
as §2

Test [4] has as its target T2, BaF3 cells expressing the target EGFR mutations (Homo sapiens, UniProt P00533, T790M, cells depend on it, form not given).
T2 construct: IC50, BAF3 EGFR DEL T790M PURO POOL; other: BAF3 EGFR DEL T790M PURO POOL cells, MTT; other: BAF3 EGFR DEL T790M PURO POOL cells; MTT
The test is described as above. Format: cell-based. The following applies: BAF3 EGFR DEL T790M PURO POOL cells, read-out: IC50, BAF3 EGFR DEL T790M PURO POOL. The method, boiled down:
as §2

Test [5] deals with human EGFR (native sequence) (Homo sapiens, UniProt P00533). The test can be described thus: Kinase inhibitory activity against human EGFR (native sequence). Format: biochemical. The following applies: 10 μM ATP, read-out: IC50 for kinase inhibition, EGFR. The method, boiled down: as §1
Test [6] has as its target EGFR L858R (Homo sapiens, UniProt P00533, L858R). Briefly: Kinase inhibitory activity against EGFR bearing the L858R mutation. Type of test: biochemical. The following applies: 10 μM ATP, read-out: IC50 for kinase inhibition, EGFR L858R. The method, boiled down: as §1
[7] abbreviates: 10 pt curves, 3 μM top concentration.
[8] abbreviates: EGFR L858R/T790M double mutation.

T1 sequence (P00533 whole entry T790M/L858R): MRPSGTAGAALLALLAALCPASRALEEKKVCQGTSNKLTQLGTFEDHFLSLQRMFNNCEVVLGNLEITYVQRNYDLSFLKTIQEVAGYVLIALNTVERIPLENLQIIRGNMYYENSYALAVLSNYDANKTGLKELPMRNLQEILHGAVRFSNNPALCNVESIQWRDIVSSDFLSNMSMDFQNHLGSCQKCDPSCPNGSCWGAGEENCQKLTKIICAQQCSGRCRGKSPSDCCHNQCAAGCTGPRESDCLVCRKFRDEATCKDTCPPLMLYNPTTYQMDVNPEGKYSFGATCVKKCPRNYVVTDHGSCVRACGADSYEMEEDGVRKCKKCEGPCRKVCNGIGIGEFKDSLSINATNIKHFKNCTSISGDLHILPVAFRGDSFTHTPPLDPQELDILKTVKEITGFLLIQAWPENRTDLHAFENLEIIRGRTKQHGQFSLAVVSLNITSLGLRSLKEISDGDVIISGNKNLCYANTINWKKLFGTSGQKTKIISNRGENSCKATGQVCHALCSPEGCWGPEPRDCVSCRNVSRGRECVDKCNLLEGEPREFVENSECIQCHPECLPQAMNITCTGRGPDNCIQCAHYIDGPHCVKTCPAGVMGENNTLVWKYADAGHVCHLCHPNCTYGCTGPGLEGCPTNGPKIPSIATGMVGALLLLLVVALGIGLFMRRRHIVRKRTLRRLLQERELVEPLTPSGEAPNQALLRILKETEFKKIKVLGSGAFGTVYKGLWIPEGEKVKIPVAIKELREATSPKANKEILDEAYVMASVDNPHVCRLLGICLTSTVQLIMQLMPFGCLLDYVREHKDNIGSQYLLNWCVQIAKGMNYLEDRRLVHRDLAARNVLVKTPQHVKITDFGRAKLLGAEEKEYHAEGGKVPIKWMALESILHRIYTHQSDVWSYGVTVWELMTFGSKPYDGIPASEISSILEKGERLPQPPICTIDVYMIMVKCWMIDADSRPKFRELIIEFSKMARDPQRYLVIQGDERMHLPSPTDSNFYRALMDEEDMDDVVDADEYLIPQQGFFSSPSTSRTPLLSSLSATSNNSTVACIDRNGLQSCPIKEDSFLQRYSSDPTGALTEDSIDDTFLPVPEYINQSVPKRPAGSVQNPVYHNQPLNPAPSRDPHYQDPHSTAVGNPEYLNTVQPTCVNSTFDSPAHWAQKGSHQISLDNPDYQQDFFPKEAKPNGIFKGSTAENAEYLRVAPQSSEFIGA
EGFR L858R, sequence (P00533 25-1210 L858R): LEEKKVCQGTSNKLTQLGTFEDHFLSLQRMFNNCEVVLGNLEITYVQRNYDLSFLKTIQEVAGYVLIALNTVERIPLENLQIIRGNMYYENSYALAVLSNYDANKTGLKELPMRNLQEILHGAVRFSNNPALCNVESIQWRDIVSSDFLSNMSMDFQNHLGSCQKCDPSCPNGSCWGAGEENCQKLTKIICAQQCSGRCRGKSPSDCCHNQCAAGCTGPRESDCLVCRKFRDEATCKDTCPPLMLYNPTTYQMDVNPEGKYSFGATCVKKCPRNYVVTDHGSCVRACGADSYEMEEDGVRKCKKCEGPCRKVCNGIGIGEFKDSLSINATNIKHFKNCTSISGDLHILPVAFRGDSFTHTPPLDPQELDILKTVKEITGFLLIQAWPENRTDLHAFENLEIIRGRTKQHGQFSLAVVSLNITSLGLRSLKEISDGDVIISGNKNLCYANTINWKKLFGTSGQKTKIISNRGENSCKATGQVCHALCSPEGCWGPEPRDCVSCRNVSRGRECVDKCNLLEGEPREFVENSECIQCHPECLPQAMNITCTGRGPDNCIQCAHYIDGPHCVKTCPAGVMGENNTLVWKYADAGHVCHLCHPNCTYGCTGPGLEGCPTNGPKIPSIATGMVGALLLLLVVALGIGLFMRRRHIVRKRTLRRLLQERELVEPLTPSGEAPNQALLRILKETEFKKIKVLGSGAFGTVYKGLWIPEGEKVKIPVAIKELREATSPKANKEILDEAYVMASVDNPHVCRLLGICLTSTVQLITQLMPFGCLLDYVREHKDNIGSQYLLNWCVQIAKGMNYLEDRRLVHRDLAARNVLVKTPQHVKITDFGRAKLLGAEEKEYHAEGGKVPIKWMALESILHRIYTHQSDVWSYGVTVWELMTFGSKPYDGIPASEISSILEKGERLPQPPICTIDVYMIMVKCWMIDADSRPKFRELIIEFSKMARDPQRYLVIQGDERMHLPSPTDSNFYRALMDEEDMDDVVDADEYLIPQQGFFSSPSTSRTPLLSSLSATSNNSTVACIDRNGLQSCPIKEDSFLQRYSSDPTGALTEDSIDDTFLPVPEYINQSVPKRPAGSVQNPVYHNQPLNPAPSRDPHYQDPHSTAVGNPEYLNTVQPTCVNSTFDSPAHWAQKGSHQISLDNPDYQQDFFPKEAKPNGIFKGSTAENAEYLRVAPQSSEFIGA
human EGFR (native sequence), sequence (P00533 25-1210): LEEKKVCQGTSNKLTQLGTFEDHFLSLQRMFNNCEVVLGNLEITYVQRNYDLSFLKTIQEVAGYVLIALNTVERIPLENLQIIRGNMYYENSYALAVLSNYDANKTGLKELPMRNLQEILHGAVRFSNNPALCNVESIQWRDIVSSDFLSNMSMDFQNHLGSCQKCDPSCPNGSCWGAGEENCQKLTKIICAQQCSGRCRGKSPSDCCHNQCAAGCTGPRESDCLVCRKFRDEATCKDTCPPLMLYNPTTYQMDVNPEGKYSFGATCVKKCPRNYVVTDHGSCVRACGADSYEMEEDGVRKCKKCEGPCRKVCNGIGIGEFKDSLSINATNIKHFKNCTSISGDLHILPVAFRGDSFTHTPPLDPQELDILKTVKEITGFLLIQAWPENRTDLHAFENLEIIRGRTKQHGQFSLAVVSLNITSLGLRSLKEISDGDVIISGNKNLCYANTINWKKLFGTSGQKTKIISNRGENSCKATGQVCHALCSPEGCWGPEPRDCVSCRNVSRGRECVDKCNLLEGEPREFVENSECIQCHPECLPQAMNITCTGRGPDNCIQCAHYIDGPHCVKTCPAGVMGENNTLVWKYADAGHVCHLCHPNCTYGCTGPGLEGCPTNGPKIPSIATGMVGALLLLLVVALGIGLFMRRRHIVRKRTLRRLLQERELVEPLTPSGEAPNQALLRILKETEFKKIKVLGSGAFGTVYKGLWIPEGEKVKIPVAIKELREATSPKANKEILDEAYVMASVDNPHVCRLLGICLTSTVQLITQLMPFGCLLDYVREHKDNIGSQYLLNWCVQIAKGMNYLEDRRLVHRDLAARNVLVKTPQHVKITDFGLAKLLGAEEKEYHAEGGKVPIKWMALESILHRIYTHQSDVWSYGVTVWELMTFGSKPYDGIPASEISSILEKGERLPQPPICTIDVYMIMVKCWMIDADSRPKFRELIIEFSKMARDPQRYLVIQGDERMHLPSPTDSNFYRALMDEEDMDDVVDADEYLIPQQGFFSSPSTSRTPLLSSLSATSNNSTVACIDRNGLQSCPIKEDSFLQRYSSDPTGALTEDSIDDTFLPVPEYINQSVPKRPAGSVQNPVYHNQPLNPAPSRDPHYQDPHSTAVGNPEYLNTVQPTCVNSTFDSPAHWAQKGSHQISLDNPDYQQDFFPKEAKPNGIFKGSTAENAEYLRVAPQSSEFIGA
T2 sequence (P00533 with tags, fused parts or gaps DEL746-750/T790M, form open): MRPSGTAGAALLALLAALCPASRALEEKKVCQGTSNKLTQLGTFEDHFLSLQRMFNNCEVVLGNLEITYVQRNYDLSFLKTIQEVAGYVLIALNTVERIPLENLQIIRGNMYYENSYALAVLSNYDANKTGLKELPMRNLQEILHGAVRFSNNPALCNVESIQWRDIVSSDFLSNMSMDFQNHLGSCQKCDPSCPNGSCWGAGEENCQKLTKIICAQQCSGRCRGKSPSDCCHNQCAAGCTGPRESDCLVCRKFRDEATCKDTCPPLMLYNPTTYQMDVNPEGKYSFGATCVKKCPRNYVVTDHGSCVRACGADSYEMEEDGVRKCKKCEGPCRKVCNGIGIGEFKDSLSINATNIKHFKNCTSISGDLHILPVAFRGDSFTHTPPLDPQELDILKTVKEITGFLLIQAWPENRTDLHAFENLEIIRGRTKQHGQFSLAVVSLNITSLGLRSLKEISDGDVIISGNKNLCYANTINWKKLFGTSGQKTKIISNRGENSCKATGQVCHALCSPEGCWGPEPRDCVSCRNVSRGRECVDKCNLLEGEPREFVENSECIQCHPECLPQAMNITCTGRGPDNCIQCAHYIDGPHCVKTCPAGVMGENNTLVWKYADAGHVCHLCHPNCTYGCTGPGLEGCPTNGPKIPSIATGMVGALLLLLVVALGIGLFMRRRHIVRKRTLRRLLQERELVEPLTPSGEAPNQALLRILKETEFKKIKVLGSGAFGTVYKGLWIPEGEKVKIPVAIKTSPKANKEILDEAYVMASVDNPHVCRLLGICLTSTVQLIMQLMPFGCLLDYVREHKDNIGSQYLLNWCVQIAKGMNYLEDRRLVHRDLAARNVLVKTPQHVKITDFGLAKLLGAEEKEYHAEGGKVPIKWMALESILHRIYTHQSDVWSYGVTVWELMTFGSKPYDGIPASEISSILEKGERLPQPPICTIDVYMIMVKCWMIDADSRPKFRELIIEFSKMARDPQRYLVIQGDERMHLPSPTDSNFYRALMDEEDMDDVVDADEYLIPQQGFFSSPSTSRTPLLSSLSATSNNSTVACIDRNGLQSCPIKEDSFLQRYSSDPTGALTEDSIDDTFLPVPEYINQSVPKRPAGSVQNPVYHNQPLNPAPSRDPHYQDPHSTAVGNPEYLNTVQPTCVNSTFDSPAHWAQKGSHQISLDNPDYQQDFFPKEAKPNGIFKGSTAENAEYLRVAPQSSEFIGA

The term IC50 denotes the concentration at which inhibition is half-maximal. On to `C=CC(=O)Nc1ccc(Nc2ncc(Cl)c(Nc3cccc(OCCN4CCCCC4)c3P(C)(C)=O)n2)c(OC)c1` [Example 107, N-(4-((5-chloro-4-((2-(dimethylphosphoryl)-3-(2-(piperidin-1-yl)ethoxy)phenyl)amino)pyrimidin-2-yl)amino)-3-methoxyphenyl)acrylamide], for which the IC50 was under 50 nM in test [1] (setting [7]), at least 250 nM in test [2] (BAF3 parental cells), 101 to 250 nM in test [5] (setting [7]) and under 50 nM in test [6] (setting [7]). For the same molecule, the GI50 in test [3] was 101 to 250 nM; in test [4] it was under 50 nM.

In the case of `C=CC(=O)Nc1cc(Nc2ncc(Cl)c(Nc3ccccc3P(C)(C)=O)n2)c(OC)cc1OCC1CCCCN1C` (stereo not drawn) [Example 7, N-(5-((5-chloro-4-((2-(dimethylphosphoryl)phenyl)amino)pyrimidin-2-yl)amino)-4-methoxy-2-((1-methylpiperidin-2-yl)methoxy)phenyl)acrylamide], the IC50 in test [1] (setting [8]) was under 50 nM; in test [2] (BAF3 PARENTAL cells (control)), at least 250 nM; in test [5] (human EGFR native sequence), under 50 nM; in test [6] (EGFR L858R), under 50 nM. For the same molecule, the GI50 in test [3] and in test [4] was under 50 nM each time.

For `C=CC(=O)Nc1cc(Nc2ncc(Cl)c(Nc3ccccc3P(C)(C)=O)n2)c(OC)cc1C#CC(C)(C)N` [Example 65, N-(2-(3-amino-3-methylbut-1-yn-1-yl)-5-((5-chloro-4-((2-(dimethylphosphoryl)phenyl)amino)pyrimidin-2-yl)amino)-4-methoxyphenyl)acrylamide], the IC50 in test [1] (setting [8]) is under 50 nM; in test [2] (BAF3 PARENTAL cells (control)), at least 250 nM; in test [5] (human EGFR native sequence), under 50 nM; in test [6] (EGFR L858R), under 50 nM. Besides, the GI50 in test [3] and in test [4] was under 50 nM each time.

As to `C=CC(=O)Nc1cc(Nc2ncc(Cl)c(Nc3ccccc3P(C)(C)=O)n2)c(OC)cc1N1CCC(N2CCOCC2)CC1` [Example 70, N-(5-((5-chloro-4-((2-(dimethylphosphoryl)phenyl)amino)pyrimidin-2-yl)amino)-4-methoxy-2-(4-morpholinopiperidin-1-yl)phenyl)acrylamide], the IC50 in test [1] (setting [8]) was under 50 nM; in test [2] (BAF3 PARENTAL cells (control)), at least 250 nM; in test [5] (human EGFR native sequence), under 50 nM; in test [6] (EGFR L858R) it was under 50 nM. In addition, the GI50 in test [3] and in test [4] was under 50 nM in each case.

Take `C=CC(=O)Nc1cc(Nc2ncc(Cl)c(Nc3ccccc3P(C)(C)=O)n2)c(OC)cc1N1CCC(N(C)CCOC)C1` (stereo not drawn) [Example 41, N-(5-((5-chloro-4-((2-(dimethylphosphoryl)phenyl)amino)pyrimidin-2-yl)amino)-4-methoxy-2-(3-((2-methoxyethyl)(methyl)amino)pyrrolidin-1-yl)phenyl)acrylamide]: the IC50 is under 50 nM in test [1] (setting [8]), at least 250 nM in test [2] (BAF3 PARENTAL cells (control)), under 50 nM in test [5] (human EGFR native sequence) and under 50 nM in test [6] (EGFR L858R). In addition, the GI50 in test [3] and in test [4] was under 50 nM in each case.

Consider `C=CC(=O)Nc1cc(Nc2ncc(Cl)c(Nc3ccccc3P(C)(C)=O)n2)c(OC)cc1C#CC(C)(C)N1CCCC1` [Example 116, N-(5-((5-chloro-4-((2-(dimethylphosphoryl)phenyl)amino)pyrimidin-2-yl)amino)-4-methoxy-2-(3-methyl-3-(pyrrolidin-1-yl)but-1-yn-1-yl)phenyl)acrylamide], for which the IC50 in test [1] (setting [7]) was under 50 nM; in test [2] (BAF3 parental cells), at least 250 nM; in test [5] (setting [7]), 50 to 100 nM; in test [6] (setting [7]) it was under 50 nM. Also, the GI50 in test [3] and in test [4] was under 50 nM each time.

Regarding `C=CC(=O)Nc1cc(Nc2ncc(Cl)c(Nc3ccccc3P(C)(C)=O)n2)c(OC)cc1N1CCC(O)C1` (stereo not drawn) [Example 32, N-(5-((5-chloro-4-((2-(dimethylphosphoryl)phenyl)amino)pyrimidin-2-yl)amino)-2-(3-hydroxypyrrolidin-1-yl)-4-methoxyphenyl)acrylamide], the IC50 was under 50 nM in test [1] (setting [8]), at least 250 nM in test [2] (BAF3 PARENTAL cells (control)), under 50 nM in test [5] (human EGFR native sequence) and under 50 nM in test [6] (EGFR L858R). In addition, the GI50 in test [3] was 101 to 250 nM; in test [4] it was 50 to 100 nM.

As to `C=CC(=O)Nc1cc(Nc2ncc(Cl)c(Nc3ccccc3P(C)(C)=O)n2)c(OC)cc1C#CCN(C)CC` [Example 162, N-(5-((5-chloro-4-((2-(dimethylphosphoryl)phenyl)amino)pyrimidin-2-yl)amino)-2-(3-(ethyl(methyl)amino)prop-1-yn-1-yl)-4-methoxyphenyl)acrylamide], the IC50 in test [1] (setting [7]) was under 50 nM; in test [2] (BAF3 parental cells), at least 250 nM; in test [5] (setting [7]) it was under 50 nM; in test [6] (setting [7]), under 50 nM. The GI50 in test [3] and in test [4] was under 50 nM throughout.

With `C=CC(=O)Nc1cc(Nc2ncc(Cl)c(Nc3ccccc3P(C)(C)=O)n2)c(OC)cc1C#CCN1CCCCC1` [Example 167, N-(5-((5-chloro-4-((2-(dimethylphosphoryl)phenyl)amino)pyrimidin-2-yl)amino)-4-methoxy-2-(3-(piperidin-1-yl)prop-1-yn-1-yl)phenyl)acrylamide], the IC50 in test [1] (setting [7]), in test [2] (BAF3 parental cells), in test [5] (setting [7]) and in test [6] (setting [7]) was under 50 nM each time. Moreover, the GI50 in test [3] and in test [4] was under 50 nM throughout.

As for `C=CC(=O)Nc1cc(Nc2ncc(Cl)c(Nc3ccccc3P(C)(C)=O)n2)c(OC)cc1N1CC[C@@H](N(C)C)C1` (stereo in doubt) [Example 26, rac-(R)-N-(5-((5-chloro-4-((2-(dimethylphosphoryl)phenyl)amino)pyrimidin-2-yl)amino)-2-(3-(dimethylamino)pyrrolidin-1-yl)-4-methoxyphenyl)acrylamide], the half-maximal inhibitory concentration (IC50) was under 50 nM in test [1] (setting [8]), at least 250 nM in test [2] (BAF3 PARENTAL cells (control)), under 50 nM in test [5] (human EGFR native sequence) and under 50 nM in test [6] (EGFR L858R). Moreover, the GI50 in test [3] and in test [4] was under 50 nM throughout.

On to `C=C(C)C(=O)Nc1cc(Nc2ncc(Cl)c(Nc3ccccc3P(C)(C)=O)n2)c(OC)cc1N1CC[C@@H](N(C)C)C1` (racemic) [Example 113, rac-(R)-N-(5-((5-chloro-4-((2-(dimethylphosphoryl)phenyl)amino)pyrimidin-2-yl)amino)-2-(3-(dimethylamino)pyrrolidin-1-yl)-4-methoxyphenyl)methacrylamide], for which the IC50 is under 50 nM in test [1] (setting [7]), at least 250 nM in test [2] (BAF3 parental cells), 101 to 250 nM in test [5] (setting [7]) and under 50 nM in test [6] (setting [7]). In addition, the GI50 in test [3] and in test [4] was under 50 nM throughout.

`C=CC(=O)Nc1cc(Nc2ncc(Cl)c(Nc3ccccc3P(C)(C)=O)n2)c(OC)cc1C(=O)N1CCN(C)CC1` [Example 56, N-(5-((5-chloro-4-((2-(dimethylphosphoryl)phenyl)amino)pyrimidin-2-yl)amino)-4-methoxy-2-(4-methylpiperazine-1-carbonyl)phenyl)acrylamide]: the IC50 is under 50 nM in test [1] (setting [8]), at least 250 nM in test [2] (BAF3 PARENTAL cells (control)), 101 to 250 nM in test [5] (human EGFR native sequence) and under 50 nM in test [6] (EGFR L858R). Further, the GI50 in test [3] and in test [4] was at least 250 nM each time.

With `C=CC(=O)Nc1cc(Nc2ncc(Cl)c(Nc3ccccc3P(C)(C)=O)n2)c(OC)cc1C#CCNC` [Example 160, N-(5-((5-chloro-4-((2-(dimethylphosphoryl)phenyl)amino)pyrimidin-2-yl)amino)-4-methoxy-2-(3-(methylamino)prop-1-yn-1-yl)phenyl)acrylamide], the IC50 in test [1] (setting [7]) was under 50 nM; in test [2] (BAF3 parental cells), at least 250 nM; in test [5] (setting [7]), under 50 nM; in test [6] (setting [7]), under 50 nM. Besides, the GI50 in test [3] and in test [4] was under 50 nM in each case.

Regarding `COc1cc(C)c(NC(=O)CCl)cc1Nc1ncc(Cl)c(Nc2ccccc2P(C)(C)=O)n1` [Example 140, 2-chloro-N-(5-((5-chloro-4-((2-(dimethylphosphoryl)phenyl)amino)pyrimidin-2-yl)amino)-4-methoxy-2-methylphenyl)acetamide], the IC50 in test [1] (setting [7]) is under 50 nM; in test [2] (BAF3 parental cells) it was at least 250 nM; in test [5] (setting [7]), under 50 nM; in test [6] (setting [7]), under 50 nM. The GI50 in test [3] and in test [4] was under 50 nM each time.
